Values joined by “and” are separate entries in the source; they are usually repeats but may differ in a detail not shown here. Equal values may be shown once.
How the values were obtained:
[1] = Furfuryl mercaptan chemical suppression by malodor eliminating materials (GC-PFPD); conditions: OE material 0.2%, malodor material 10 ppm, room temperature 2 hours, triplicate
Procedure: (§1) The selected OE materials were tested for propyl, allyl, and furfuryl mercaptan suppression. 100 μl of 0.01%(w/v) of test malodor material in ethanol, 2 μl of neat flavor oil and 900 μl of deionized water were added into a 4 ml vial and left to sit at room temperature for 2 hours. As a control, ethanol was added instead of test flavor materials. The final concentration of test OE material and malodor material are 0.2% and 10 ppm, respectively. 3 ml of ethanol was added into the resulting vial and the thiol level was analyzed using GC-PFPD. Each material was tested in triplicate. Malodor suppression was calculated as described in the example 1 above.

[2] = Propyl mercaptan chemical suppression by malodor eliminating materials (GC-PFPD); conditions: OE material 0.2%, malodor material 10 ppm, room temperature 2 hours, triplicate
Procedure: as §1

[3] = Allyl mercaptan chemical suppression by malodor eliminating materials (GC-PFPD); conditions: OE material 0.2%, malodor material 10 ppm, room temperature 2 hours, triplicate
Procedure: as §1

[4] = Methyl mercaptan chemical suppression by Group A and Group B compounds (GC-PFPD); conditions: test material 200 ppm, malodor material 10 ppm, room temperature 2 hours, ethanol/deionized water
Procedure: 2 μl of 0.5%(w/v) of sodium methoxide in deionized water, 20 μl of 1% (w/v) test malodor eliminating material in ethanol, 80 μl of ethanol, and 900 μl of deionized water were added into a 2 ml GC vial, left to sit at room temperature for 2 hours, and analyzed using Multipurpose sampler-GC-PFPD (Gas Chromatography-Pulsed Flame Photometric Detector) (GC-PFPD)MPS2 (Gerstel)—GC; 6890N (Agilent)—PFPD; model 5380 (OI Analytical). As a control, ethanol was added instead of test malodor eliminating materials. The final concentration of test OE material and malodor material are 200 ppm and 10 ppmm, respectively. Malodor suppression was calculated as follows: Malodor Suppression (%)=(GC area of control sample−GC area of test_sample)/GC area of control sample×100

[5] = Suppression of methyl mercaptan (Example 12, GC-PFPD); conditions: test material 0.2%, malodor material 10 ppm, room temperature 2 hours, triplicate
Procedure: as §1, with “100” for “The selected OE materials were tested for propyl, allyl, and furfuryl mercaptan suppression. 100”, “the malodor reducing compound.” for “test flavor materials.”, “test” for “test OE”, “ppmm,” for “ppm,”, “GC-PFPD as described above.” for “GC-PFPD.”

[6] = Methyl mercaptan suppression by Group A and Group B materials alone and combined (synergistic or additive activity); conditions: in ethanol, room temperature 2 hours
Procedure: The synergistic or additive activity of methyl mercaptan inhibition of malodor eliminating materials was tested. 5-40 μl of 1% (w/v) test OE materials in ethanol was placed into a 2 ml GC vial. Ethanol was added into this vial up to 1000 μl. 2 μl of 0.5%(w/v) of sodium methoxide in deionized water was added into the resulting vial, left to sit at room temperature for 2 hours, and analyzed using Multipurpose sampler-GC-PFPD. As a control, ethanol was added instead of test OE materials. Malodor suppression was calculated as described in Example 1 above.

Molecule | Malodor reduction (%) furfuryl mercaptan [1] [%] | Malodor reduction (%) propyl mercaptan [2] [%] | Malodor reduction (%) allyl mercaptan [3] [%] | methyl mercaptan suppression (%) [4] [%] | methyl mercaptan suppression (%) [5] [%] | methyl mercaptan suppression (%) B alone ([6]; Group B level 400 ppm) | methyl mercaptan suppression (%) B alone ([6]; Group B level 100 ppm) | methyl mercaptan suppression (%) A alone ([6]; Group A level 200 ppm) [%] | methyl mercaptan suppression (%) A alone ([6]; Group A level 50 ppm, listed as METHYL HEP CARB) | methyl mercaptan suppression (%) A alone ([6]; Group A level 200 ppm, listed as PIPERITONED) [%]
C=CCc1ccc(O)c(OC)c1 [EUGENOL, eugenol] | 80 | 44 | 63 | 46 | 78 | 12% and 14% and 15% and 16% |  |  |  | 
CC/C=C\CCOC(C)=O [HEXENYL CIS 3 ACETATE, cis-3-hexenyl acetate] | 28 | <20 | <20 | 60 | 38 |  | 22% and 27% |  |  | 
CC(=O)/C=C/C1=C(C)CCCC1(C)C [IONONE-BETA, ionone beta] | 51 | 27 | 37 | 23 | 55 |  |  | 71 |  | 
CCCCCC#CC(=O)OC [METHYL HEPTIN CARE, methyl heptin carbonate] | 69 | 44 | 63 | 92 | 80 |  |  |  | 67% and 53% | 
piperitone-d [[…]] | 64 | <20 | 51 | 37 | 45 |  |  | 8 |  | 12
